Earlier results on two compounds are cited in patent US8486874B2, “Water-soluble processing oil agent” (Idemitsu Kosan Co., Ltd., priority 2009, dated 2013).

The conditions of data set [1]: compared with dicyclohexylamine, Table 1 data.
For data set [2] the following is noted: Peroral rat.
For data set [3] the following is noted: Percutaneous rabbit.

On to `CN(C1CCCCC1)C1CCCCC1` [Methyldicyclohexylamine], for which the “Toxicity relative to dicyclohexylamine” value in data set [1] is “considerably lower”. Further, the LD50 result in data set [2] is “LD50 446 mg/kg^1)”. Besides, in data set [3], the LDLo entry is “LDLo 2 g/kg^1)”.

For `C1CCC(NC2CCCCC2)CC1` [Dicyclohexylamine, reference compound], the LD50 entry in data set [2] is recorded as “LD50 373 mg/kg^1)”.
